Results as given in US9999222B2, “Herbicidal combination comprising azines” (BASF SE, priority 2014, dated 2018).
Several values for one entry are separate records, joined by “and”; a condition that tells them apart may be missing. Equal values may be shown once.

Experiments:
Test in all cases: Greenhouse test, pre-emergence treatment
LOLMU = assay type: in vivo, Lolium multiflorum; settings: Lolium multiflorum, pre-emergence, 480 h, pre-emergence, 20 DAT, read-out: observed % activity 20 DAT
Outline: (§1)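 Seeds were sown in loamy sand with approximately 3.0% humus, then sprayed at once with actives suspended or emulsified in water. Pots were watered, hooded until rooting, held at 10-25° C. or 20-35° C. by species for 2 to 4 weeks, and scored 0 (no damage) to 100 (no emergence/complete destruction).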

SETFA = assay type: in vivo, Setaria faberi; settings: 20 DAT
Outline: as §1

POLCO = assay type: in vivo, Polygonum convolvulus; settings: pre-emergence, 20 DAT
Outline: as §1

KCHSC = assay type: in vivo, Kochia scoparia; settings: pre-emergence, 20 DAT
Outline: as §1

VIOAR = assay type: in vivo, Viola arvensis; settings: use rate 2 g ai/ha, 20 DAT
Text: The culture containers used were plastic flowerpots containing loamy sand with approximately 3.0% of humus as the substrate. The seeds of the test plants were sown separately for each species.
For the pre-emergence treatment, the active ingredients, which had been suspended or emulsified in water, were applied directly after sowing by means of finely distributing nozzles. The containers were irrigated gently to promote germination and growth and subsequently covered with transparent plastic hoods until the plants had rooted. This cover caused uniform germination of the test plants, unless this had been impaired by the active ingredients.
Depending on the species, the plants were kept at 10-25° C. or 20-35° C., respectively.
The test period extended over 2 to 4 weeks. During this time, the plants were tended, and their response to the individual treatments was evaluated.
Evaluation was carried out using a scale from 0 to 100. 100 means no emergence of the plants, or complete destruction of at least the aerial moieties, and 0 means no damage, or normal course of growth. A moderate herbicidal activity is given at values of at least 60, a good herbicidal activity is given at values of at least 70, and a very good herbicidal activity is given at values of at least 85.
The respective stated components a and b, and if appropriate, c were formulated as a 10% by weight strength emulsion concentrate and, with addition of the amount of solvent system, introduced into the spray liquor used for applying the active compound.
In the examples, the solvent used was water.
In the examples below, using the method of S. R. Colby (1967) “Calculating synergistic and antagonistic responses of herbicide combinations”, Weeds 15, p. 22ff., the value E, which is expected if the activity of the individual active compounds is only additive, was calculated. E=X+Y−(X·Y/100) where • X=percent activity using active compound a at an application rate A; • Y=percent activity using active compound b at an application rate B; • E=expected activity (in %) by a+b at application rates A+B.
If the value found experimentally is higher than the value E calculated according to Colby, a synergistic effect is present.

ECHCG = assay type: in vivo, Echinocloa crus-galli; settings: Echinochloa crus-galli, 480 h, 20 DAT, read-out: observed % activity 20 DAT
Outline: as §1

PHACA = assay type: in vivo, Phalaris canariensis; settings: Phalaris canariensis, pre-emergence, 480 h, pre-emergence, 20 DAT, read-out: observed % activity 20 DAT
Outline: as §1

ALOMY = assay type: in vivo, Alopecurus myosuroides; settings: pre-emergence, pre-emergence, 20 DAT
Outline: as §1

GERPU = assay type: in vivo, Geranium pusillum; settings: Geranium pusillum, pre-emergence, 480 h, pre-emergence, 20 DAT, read-out: observed % activity 20 DAT
Outline: as §1

In the case of `CC(C)(F)c1nc(N)nc(Nc2c(F)c(F)cc(F)c2F)n1` [compound 2, 6-(1-Fluoro-1-methyl-ethyl)-N4-(2,3,5,6-tetrafluorophenyl)-1,3,5-triazine-2,4-diamine], the inhibition at 1 g/ha (LOLMU; LOLMU, use rate 1 g ai/ha) was 40%, the inhibition at 2 g/ha (LOLMU; LOLMU, use rate 2 g ai/ha) was 80% and the inhibition at 4 g/ha (LOLMU; LOLMU, use rate 4 g ai/ha) was 95%. It also gave a pest or weed control at 1 g/ha (LOLMU; use rate 1 g ai/ha) of 20%, a pest or weed control at 2 g/ha (LOLMU; use rate 2 g ai/ha) of 80% and a pest or weed control at 4 g/ha (LOLMU; use rate 4 g ai/ha) of 95%. It also gave an inhibition at 1 g/ha (SETFA; Setaria faberi, 480 h, SETFA, use rate 1 g ai/ha, read-out: observed % activity 20 DAT) of 80%, an inhibition at 2 g/ha (SETFA; Setaria faberi, 480 h, SETFA, use rate 2 g ai/ha, read-out: observed % activity 20 DAT) of 95% and an inhibition at 4 g/ha (SETFA; Setaria faberi, 480 h, SETFA, use rate 4 g ai/ha, read-out: observed % activity 20 DAT) of 95%. For the same molecule, the “observed % activity 20 DAT” value (SETFA; use rate 2 g ai/ha) was 75% and 65%, the pest or weed control at 1 g/ha (POLCO; Fallopia convolvulus, 480 h, use rate 1 g ai/ha, read-out: observed % activity 20 DAT) was 60% and the pest or weed control at 2 g/ha (POLCO; Fallopia convolvulus, 480 h, use rate 2 g ai/ha, read-out: observed % activity 20 DAT) was 70%. The inhibition at 2 g/ha (POLCO; Fallopia convolvulus, 480 h, POLCO, use rate 2 g ai/ha, read-out: observed % activity 20 DAT) was 70%, the inhibition at 4 g/ha (POLCO; Fallopia convolvulus, 480 h, POLCO, use rate 4 g ai/ha, read-out: observed % activity 20 DAT) was 95% and the “observed % activity 20 DAT” value (POLCO; POLCO, use rate 1 g ai/ha) was 15%. For the same molecule, the pest or weed control at 1 g/ha (KCHSC; Bassia scoparia, 480 h, use rate 1 g ai/ha, read-out: observed % activity 20 DAT) was 0%, the pest or weed control at 2 g/ha (KCHSC; Bassia scoparia, 480 h, use rate 2 g ai/ha, read-out: observed % activity 20 DAT) was 50% and the inhibition at 1 g/ha (KCHSC; Bassia scoparia, 480 h, KCHSC, use rate 1 g ai/ha, read-out: observed % activity 20 DAT) was 45%. It also gave an inhibition at 2 g/ha (KCHSC; Bassia scoparia, 480 h, KCHSC, use rate 2 g ai/ha, read-out: observed % activity 20 DAT) of 80%, an inhibition at 4 g/ha (KCHSC; Bassia scoparia, 480 h, KCHSC, use rate 4 g ai/ha, read-out: observed % activity 20 DAT) of 90% and an inhibition at 8 g/ha (KCHSC; Bassia scoparia, 480 h, KCHSC, use rate 8 g ai/ha, read-out: observed % activity 20 DAT) of 80%. The “observed % activity 20 DAT” value (KCHSC; KCHSC, use rate 8 g ai/ha) was 95%, the “observed % activity 20 DAT” value (VIOAR) was 50% and the inhibition at 1 g/ha (ECHCG; ECHCG, use rate 1 g ai/ha) was 65%. The inhibition at 2 g/ha (ECHCG; ECHCG, use rate 2 g ai/ha) was 98%, the pest or weed control at 1 g/ha (ECHCG; use rate 1 g ai/ha) was 65% and the inhibition at 1 g/ha (PHACA; PHACA, use rate 1 g ai/ha) was 20%. It also gave an inhibition at 2 g/ha (PHACA; PHACA, use rate 2 g ai/ha) of 70%, a pest or weed control at 1 g/ha (PHACA; use rate 1 g ai/ha) of 20% and a pest or weed control at 4 g/ha (PHACA; use rate 4 g ai/ha) of 95%. The pest or weed control at 8 g/ha (PHACA; use rate 8 g ai/ha) was 85%, the inhibition at 1 g/ha (ALOMY; Alopecurus myosuroides, 480 h, ALOMY, use rate 1 g ai/ha, read-out: observed % activity 20 DAT) was 60% and the inhibition at 2 g/ha (ALOMY; Alopecurus myosuroides, 480 h, ALOMY, use rate 2 g ai/ha, read-out: observed % activity 20 DAT) was 70%. The inhibition at 4 g/ha (ALOMY; Alopecurus myosuroides, 480 h, ALOMY, use rate 4 g ai/ha, read-out: observed % activity 20 DAT) was 90%, the pest or weed control at 1 g/ha (ALOMY; Alopecurus myosuroides, 480 h, use rate 1 g ai/ha, read-out: observed % activity 20 DAT) was 45% and the pest or weed control at 2 g/ha (ALOMY; Alopecurus myosuroides, 480 h, use rate 2 g ai/ha, read-out: observed % activity 20 DAT) was 75%. For the same molecule, the pest or weed control at 4 g/ha (ALOMY; Alopecurus myosuroides, 480 h, use rate 4 g ai/ha, read-out: observed % activity 20 DAT) was 90%, the “observed % activity 20 DAT” value (ALOMY; ALOMY, use rate 4 g ai/ha) was 95% and the “observed % activity 20 DAT” value (ALOMY; ALOMY, use rate 8 g ai/ha) was 50% and 80% and 95%. It also gave a pest or weed control at 1 g/ha (GERPU; use rate 1 g ai/ha) of 0% and a pest or weed control at 2 g/ha (GERPU; use rate 2 g ai/ha) of 0%.
